Measured values as given in patent US6362369B1, “Phthalic acid diamide derivatives fluorine-containing aniline compounds as starting material, agricultural and horticultural insecticides, and a method for application of the insecticides” (Nihon Nohyaku Co., Ltd., priority 1997, dated 2002).

How the values were obtained:
Type in all cases: in vivo
[1] = tested on: common cutworm (Spodoptera Litura); experiment: Insecticidal effect on common cutworm (Test Example 2); conditions: 500 ppm, 25° C.; for Insecticidal effect, Test Example 2: cabbage leaf immersed; for Insecticidal effect, Test Example 2 / Insecticidal effect on common cutworm (Test Example 2), judged grade: eight days after inoculation; for Insecticidal effect (Test Example 2), judged from mortality / Insecticidal effect on common cutworm (Test Example 2), judged grade: cabbage leaf dip; for Insecticidal effect (Test Example 2), judged from mortality: 8 days after inoculation; for Insecticidal effect on common cutworm (Test Example 2), judged grade: second-instar larvae
Outline: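 Air-dried treated material was placed in a closed dish with second-instar larvae and held at 25° C. Dead and live insects were counted eight days after inoculation, and mortality was calculated and scored against a fixed insecticidal-effect criterion. Three replicate groups of 10 insects were used.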

[2] = tested on: rice leafroller (Cnaphalocrocis medinalis); experiment: Insecticidal effect on rice leafroller (Test Example 3); conditions: 500 ppm, 25° C., humidity 70%; for Insecticidal effect, Test Example 3: rice lamina immersed; for Insecticidal effect, Test Example 3 / Insecticidal effect on rice leafroller (Test Example 3), judged grade: four days after inoculation; for Insecticidal effect (Test Example 3), judged from mortality / Insecticidal effect on rice leafroller (Test Example 3), judged grade: rice lamina dip; for Insecticidal effect (Test Example 3), judged from mortality: 4 days after inoculation; for Insecticidal effect on rice leafroller (Test Example 3), judged grade: third-instar larvae
Outline: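 Insecticidal effect is judged by a predefined criterion from dead/alive counts four days after infesting air-dried lamina with third-instar larvae, kept on moistened filter paper at 25° C, 70% humidity.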

[3] = tested on: diamondback moth (Plutella xylostella); experiment: Insecticidal effect on diamondback moth (Test Example 1); conditions: for Insecticidal effect, Test Example 1 / Insecticidal effect (Test Example 1), judged from mortality: diamondback moth; for Insecticidal effect (Test Example 1), judged from mortality: judged by the criterion of Test Example 1; for Insecticidal effect on diamondback moth (Test Example 1), judged grade: mortality judged according to the criterion shown in Test Example 1
Outline: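 Triplicate groups of 10 insects: eggs laid on Chinese cabbage seedling by adults, seedling immersed then air-dried, kept at 25° C. Day-6 hatch counts gave mortality, rated by criterion.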

[4] = common cutworm second-instar larvae
[5] = rice leafroller third-instar larvae
[6] = mortality judged by criterion of Test Example 1
[7] = second-instar larvae of common cutworm
[8] = third-instar larvae of rice leafroller
[9] = judged by the mortality criterion of Test Example 1

CCCNC(=O)c1c(I)cccc1C(=O)Nc1ccc(C(F)(F)C(F)(F)F)cc1C [compound 1303]
Insecticidal effect, Test Example 2 [1, 4]: A (100)
Insecticidal effect, Test Example 3 [2, 5]: A (100)
Insecticidal effect, Test Example 1 [3, 6]: A (100)

Cc1cc(C(F)(F)C(F)(F)F)ccc1NC(=O)c1cccc(Cl)c1C(=O)NC(C)CF (stereo not drawn) [compound 1651]
Insecticidal effect (Test Example 2), judged from mortality [1, 7]: A (100)
Insecticidal effect (Test Example 3), judged from mortality [2, 8]: A (100)
Insecticidal effect (Test Example 1), judged from mortality [3]: A (100)

CC(C)NC(=O)c1c(I)cccc1C(=O)Nc1ccc2c(c1)OC(F)(F)O2 [compound 1102]
Insecticidal effect, Test Example 2 [1, 4]: A (100)
Insecticidal effect, Test Example 3 [2, 5]: A (100)
Insecticidal effect, Test Example 1 [3, 6]: A (100)

Cc1cc(Oc2c(F)c(F)c(F)c(F)c2F)ccc1NC(=O)c1cccc(I)c1C(=O)NC(C)C [compound 397]
Insecticidal effect, Test Example 2 [1, 7]: A (100)
Insecticidal effect, Test Example 3 [2, 8]: A (100)
Insecticidal effect, Test Example 1 [3, 9]: A (100)

Cc1cc(OC(F)(F)Br)ccc1NC(=O)c1ccccc1C(=O)NC(C)(C)C [compound 1049]
Insecticidal effect, Test Example 2 [1, 4]: A (100)
Insecticidal effect, Test Example 3 [2, 5]: A (100)
Insecticidal effect, Test Example 1 [3, 6]: A (100)

CCC(CO)NC(=O)c1ccccc1C(=O)Nc1ccc(C(F)(F)C(F)(F)F)cc1C (stereo not drawn) [compound 1299]
Insecticidal effect, Test Example 2 [1, 4]: A (100)
Insecticidal effect, Test Example 3 [2, 5]: A (100)
Insecticidal effect, Test Example 1 [3, 6]: A (100)

COc1ccc(NC(=O)c2c(Cl)cccc2C(=O)NC(C)C)c(C)c1C [compound 219]
Insecticidal effect, Test Example 2 [1, 7]: D (79-50)
Insecticidal effect, Test Example 3 [2, 8]: A (100)
Insecticidal effect, Test Example 1 [3, 9]: A (100)

CCc1cc(Cl)ccc1NC(=O)c1cccc([N+](=O)[O-])c1C(=O)NC(C)C [compound 667]
Insecticidal effect on common cutworm (Test Example 2), judged grade [1]: A (100)
Insecticidal effect on rice leafroller (Test Example 3), judged grade [2]: A (100)
Insecticidal effect on diamondback moth (Test Example 1), judged grade [3]: A (100)

Cc1cc(C(F)(F)C(F)(F)F)ccc1NC(=O)c1cccc([N+](=O)[O-])c1C(=O)NC(C)C [compound 683]
Insecticidal effect on common cutworm (Test Example 2), judged grade [1]: A (100)
Insecticidal effect on rice leafroller (Test Example 3), judged grade [2]: A (100)
Insecticidal effect on diamondback moth (Test Example 1), judged grade [3]: A (100)

Cc1ccc(F)cc1NC(=O)c1c(F)cccc1C(=O)NC(C)C [compound 549]
Insecticidal effect on common cutworm (Test Example 2), judged grade [1]: A (100)
Insecticidal effect on rice leafroller (Test Example 3), judged grade [2]: D (79-50)
Insecticidal effect on diamondback moth (Test Example 1), judged grade [3]: A (100)

Cc1cc(C(F)(C(F)(F)F)C(F)(F)F)ccc1NC(=O)c1cccc(I)c1C(=O)NC(C)c1ccccn1 (stereo not drawn) [compound 1773]
Insecticidal effect (Test Example 2), judged from mortality [1, 7]: A (100)
Insecticidal effect (Test Example 3), judged from mortality [2, 8]: A (100)
Insecticidal effect (Test Example 1), judged from mortality [3]: A (100)

Cc1cc(Oc2ncc(C(F)(F)F)cc2Cl)ccc1NC(=O)c1cccc(I)c1C(=O)NC(C)C [compound 400]
Insecticidal effect, Test Example 2 [1, 7]: D (79-50)
Insecticidal effect, Test Example 3 [2, 8]: A (100)
Insecticidal effect, Test Example 1 [3, 9]: A (100)

CC(C)(C)NC(=O)c1c(F)cccc1C(=O)Nc1ccc(C(F)(F)C(F)(F)F)cc1Cl [compound 1508]
Insecticidal effect (Test Example 2), judged from mortality [1, 7]: C (89-80)
Insecticidal effect (Test Example 3), judged from mortality [2, 8]: A (100)
Insecticidal effect (Test Example 1), judged from mortality [3]: A (100)

CCN(CC)C(=O)c1c(F)cccc1C(=O)Nc1ccc(C(F)(F)C(F)(F)F)cc1Cl [compound 1531]
Insecticidal effect (Test Example 2), judged from mortality [1, 7]: A (100)
Insecticidal effect (Test Example 3), judged from mortality [2, 8]: A (100)
Insecticidal effect (Test Example 1), judged from mortality [3]: A (100)

CC(C)NC(=O)c1c(Br)cccc1C(=O)Nc1ccc(OC(F)(F)F)cc1Br [compound 287]
Insecticidal effect, Test Example 2 [1, 7]: A (100)
Insecticidal effect, Test Example 3 [2, 8]: A (100)
Insecticidal effect, Test Example 1 [3, 9]: A (100)

Cc1cc(OC(F)(F)F)ccc1NC(=O)c1cccc(I)c1C(=O)NC(C)(C)CCl [compound 1627]
Insecticidal effect (Test Example 2), judged from mortality [1, 7]: A (100)
Insecticidal effect (Test Example 3), judged from mortality [2, 8]: A (100)
Insecticidal effect (Test Example 1), judged from mortality [3]: A (100)

CC(C)NC(=O)c1c(Cl)cccc1C(=O)Nc1ccc(OC(F)(F)F)cc1Br [compound 136]
Insecticidal effect, Test Example 2 [1, 7]: A (100)
Insecticidal effect, Test Example 3 [2, 8]: A (100)
Insecticidal effect, Test Example 1 [3, 9]: A (100)

CC(C)(C)NC(=O)c1c(Cl)cccc1C(=O)Nc1ccc(C(F)(F)C(F)(F)F)cc1Cl [compound 1449]
Insecticidal effect (Test Example 2), judged from mortality [1, 7]: A (100)
Insecticidal effect (Test Example 3), judged from mortality [2, 8]: A (100)
Insecticidal effect (Test Example 1), judged from mortality [3]: A (100)

Cc1cc(C(F)(F)F)ccc1NC(=O)c1c(Br)cccc1C(=O)NC(C)C [compound 316]
Insecticidal effect, Test Example 2 [1, 7]: A (100)
Insecticidal effect, Test Example 3 [2, 8]: A (100)
Insecticidal effect, Test Example 1 [3, 9]: A (100)

CC(C)(C)NC(=O)c1c(I)cccc1C(=O)Nc1ccc(C(F)(F)C(F)(F)F)cc1C(F)(F)F [compound 1429]
Insecticidal effect, Test Example 2 [1, 4]: A (100)
Insecticidal effect, Test Example 3 [2, 5]: A (100)
Insecticidal effect, Test Example 1 [3, 6]: A (100)

CC(C)NC(=O)c1c(F)cccc1C(=O)Nc1ccc(C(F)(F)C(F)(F)F)cc1 [compound 891]
Insecticidal effect on common cutworm (Test Example 2), judged grade [1]: A (100)
Insecticidal effect on rice leafroller (Test Example 3), judged grade [2]: A (100)
Insecticidal effect on diamondback moth (Test Example 1), judged grade [3]: A (100)

Cc1cc(OC(F)(F)C(F)(Br)C(F)(F)F)ccc1NC(=O)c1c(F)cccc1C(=O)NC(C)C (stereo not drawn) [compound 569]
Insecticidal effect on common cutworm (Test Example 2), judged grade [1]: A (100)
Insecticidal effect on rice leafroller (Test Example 3), judged grade [2]: A (100)
Insecticidal effect on diamondback moth (Test Example 1), judged grade [3]: A (100)

COc1ccc(C#CC(C)(C)NC(=O)c2c(Cl)cccc2C(=O)Nc2ccc(C(F)(F)C(F)(F)F)cc2C)cc1 [compound 1572]
Insecticidal effect (Test Example 2), judged from mortality [1, 7]: A (100)
Insecticidal effect (Test Example 3), judged from mortality [2, 8]: A (100)
Insecticidal effect (Test Example 1), judged from mortality [3]: A (100)

C=CCNC(=O)c1c(I)cccc1C(=O)Nc1ccc(C(F)(F)C(F)(F)F)cc1C [compound 987]
Insecticidal effect, Test Example 2 [1, 4]: A (100)
Insecticidal effect, Test Example 3 [2, 5]: A (100)
Insecticidal effect, Test Example 1 [3, 6]: A (100)

CC(C)NC(=O)c1c(Cl)cccc1C(=O)Nc1ccc2c(c1Cl)OC(F)(F)C(F)(F)O2 [compound 1642]
Insecticidal effect (Test Example 2), judged from mortality [1, 7]: A (100)
Insecticidal effect (Test Example 3), judged from mortality [2, 8]: A (100)
Insecticidal effect (Test Example 1), judged from mortality [3]: A (100)

CC(C)(C)NC(=O)c1c(Cl)cccc1C(=O)Nc1ccc(SC(F)(F)Br)cc1 [compound 1114]
Insecticidal effect, Test Example 2 [1, 4]: A (100)
Insecticidal effect, Test Example 3 [2, 5]: A (100)
Insecticidal effect, Test Example 1 [3, 6]: A (100)

Cc1cc(OC(F)(F)C(F)Cl)ccc1NC(=O)c1ccccc1C(=O)NC(C)C (stereo not drawn) [compound 62]
Insecticidal effect, Test Example 2 [1, 7]: A (100)
Insecticidal effect, Test Example 3 [2, 8]: A (100)
Insecticidal effect, Test Example 1 [3, 9]: A (100)

Cc1ccc(NC(=O)c2cccc(I)c2C(=O)NC(C)C)c(C)c1Cl [compound 364]
Insecticidal effect, Test Example 2 [1, 7]: A (100)
Insecticidal effect, Test Example 3 [2, 8]: D (79-50)
Insecticidal effect, Test Example 1 [3, 9]: A (100)

CC(C)NC(=O)c1c(I)cccc1C(=O)Nc1ccc(C(F)(C(F)(F)F)C(F)(F)F)cc1Cl [compound 1722]
Insecticidal effect (Test Example 2), judged from mortality [1, 7]: A (100)
Insecticidal effect (Test Example 3), judged from mortality [2, 8]: A (100)
Insecticidal effect (Test Example 1), judged from mortality [3]: A (100)

Cc1ccccc1CNC(=O)c1c(I)cccc1C(=O)Nc1ccc(C(F)(F)C(F)(F)F)cc1C [compound 1404]
Insecticidal effect, Test Example 2 [1, 4]: C (89-80)
Insecticidal effect, Test Example 3 [2, 5]: A (100)
Insecticidal effect, Test Example 1 [3, 6]: A (100)

CCCN(CCC)C(=O)c1c(I)cccc1C(=O)Nc1ccc(OC(F)(F)F)cc1C [compound 1156]
Insecticidal effect, Test Example 2 [1, 4]: A (100)
Insecticidal effect, Test Example 3 [2, 5]: A (100)
Insecticidal effect, Test Example 1 [3, 6]: A (100)
